“Also recorded” adds a separate entry of the source.
Key:
[1] = system: THP-1 cells; test: NC on TNFα production by THP-1s in response to TLR agonists (Example 7); assay type: cell-based, human
Method: (§1) FIG. 32. NC Reduces TNFα Response to Toll 3 Agonist. Macrophages were cultured at a uniform density and allowed to adhere (in the case of BMDMs) or differentiate with PMA (in the case of THP-1s). macrophages were then incubated overnight in NC at a concentration of 50 uM at 37° C. The following day, the BMDMs were stimulated with P(I:C) at 50 ug/mL, 100 ug/mL, or 200 ug/mL for four hours and the THP-1s were stimulated at 200 […]. Supernatants were collected and TNFα concentrations were determined via ELISA.
FIG. 34. TNFα production from THP-1 stimulation. Thp-1s plated at uniform density and incubated in PMA to differentiate and treated with NC overnight. The following day, cells were then treated with FSL at a concentration of 20 ng/ml and 50 ng/ml. After 4 hours, supernatant was collected and the concentration of TNFα was determined via ELISA.
(§2) Bone marrow derived macrophages were collected from adult mice (6-8 weeks old). Femurs were obtained and cut with scissors. The connecting muscles were removed and the bones were flushed with PBS. PBS was collected and cells were counted and adjusted to the desired concentrations. Cells were then plated in DMEM supplemented with Macrophage Colony Stimulating Factor (M-CSF) at 10 ng/ml. […] After 7 days the cells were ready for use. […]
(§3) Once ready, macrophages were then incubated with NC at a concentration of 50 uM overnight. […] Samples were treated for 4 hours and then Supernatant was then collected and the concentration of TNFα was then determined via the commercially available ELISA MAX Deluxe kit (Biolegend), with measurements reported in pg/mL.
(§4) To investigate the effects NC, macrophages were stimulated in vitro with various TLR agonists, and the production of cytokines was measured via ELISA. […] After 4 hours, supernatant was collected and the concentration of TNFα was determined via ELISA.
(§5) Further investigation of NC's impact on TLR signaling involved treating BMDMs with the TLR 4 agonist LPS. […] After 4 hours supernatant was collected and concentration of TNFα was measured via ELISA. […]

[2] = system: Bone Marrow Derived Macrophage (BMDM); test: NC on TNFα production by BMDMs in response to TLR agonists (Example 7); assay type: cell-based, mouse
Method: as §1
FIG. 33. TNFα production from Bone Marrow Derived Macrophage (BMDM) stimulation. BMDMs were cultured in DMEM supplemented with Macrophage Colony Stimulating Factor (M-CSF) at 10 ng/ml. The macrophages were then incubated overnight in NC at a concentration of 50 uM at 37° C. The following day they were stimulated with LPS at 1 ng/ml, 10 ng/ml for four hours. Supernatants were collected and TNFα concentrations were determined via ELISA.
as §2, with “concentrations.” for “concentrations. Cells were then plated in DMEM supplemented with Macrophage Colony Stimulating Factor (M-CSF) at 10 ng/ml.”
as §3, §4, §5

[3] = system: THP-1 cells; test: NC on TNFα release in THP-1 cells in response to TLR agonists; assay type: cell-based, human; conditions: 50 μM NC 18 hours
Method: FIG. 27A and FIG. 27B. Metabolite NC on TNFα release in response to LPS in human and murine macrophages in vitro. Macrophages were plated at a uniform density of 0.2×10^6 cells/mL in 24 well plates. These cells (FIG. 27A) were allowed to adhere, or, in the case of THP-1 cells FIG. 27B), differentiate using PMA. They were then treated for 18 hours with 50 μM of metabolite NC before being stimulated with 0.1 ug of LPS-EK. Supernatant was collected between 4-6 hours after addition of LPS and debris was removed via centrifugation at 1250 rpm for 5 minutes. TNFα was quantified in the supernatant using sandwich ELISA with standards of known concentrations.
FIG. 28A and FIG. 28B. Metabolite NC on TNFα release in macrophages in response to various TLR agonists. Raw 264.7 cells (FIG. 28A) and THP-1 FIG. 28B) cells were plated at a uniform density of 0.2×10^6 cells per mL and stimulated with various TLR agonists: Pam3CSK4, Poly I:C, LPS, Fla, FSL-1, imiquimod (ImiQ), and ODN-2006. NC reduced TNFα release in response to TLR3 (p<0.0001 via student's t-test for both Raw 264.7 cells and THP-1 cells) and TLR4 agonists in both cell lines.
To investigate the effects of compound NC, macrophages were stimulated with LPS, an endotoxin associated with gram-negative bacteria. Human and murine macrophage-like cells (THP-1 cells and Raw 264.7 cells, respectively) were plated in 24 well plates at a uniform density of 0.2×10^6 cells/mL. Following 18 hours of pretreatment with 50 μM metabolite NC, they were stimulated with 10 μg/mL of LPS. After 4-6 hours, supernatant was collected and TNFα was quantified using sandwich ELISA. NC reduces TNFα release from both THP-1 and Raw 264.7 macrophage-like cells in response to TLR4 agonist LPS in vitro.
Metabolite NC reduces inflammation in response to TLR4 agonist LPS. To further investigate the specificity of NC's action in TLR signaling, Raw 264.7 (FIG. 28A) and THP-1 (FIG. 28B) cells were once again plated at a uniform density of 0.2×10^6 cells/mL, treated with 50 μM metabolite NC for 18 hours, and stimulated with agonists for TLR1/2, TLR3, TLR4, TLR5, TLR6/2, TLR7 and TLR9. After 4-6 hours, supernatant was collected and TNFα was quantified via sandwich ELISA.

CCCCCCCCCCCCCCCC(=O)N[C@@H](C(=O)O)[C@H](C)O [NC, N-Palmitoyl-D-Threonine]
production and secretion of TNFα ([1]; NC 50 μM overnight, Poly (I:C) 200 mg/ml or 400 mg/mL, 4 hours): reduced | production of TNFα ([1]; NC alone, 50 μM overnight): not found to increase | TNFα production in response to TLR 2/6 agonist FSL-1 ([1]; NC overnight, FSL 20 ng/ml and 50 ng/ml, 4 hours): exhibited inhibitory effects | production and secretion of TNFα ([2]; NC 50 μM overnight, Poly (I:C) 50, 100, 200 μg/ml, 4 hours): reduced | production of TNFα ([2]; NC alone, 50 μM overnight): not found to increase | cytokine (TNFα) production in response to TLR 4 agonist LPS ([2]; NC overnight, LPS 1 ng/ml and 10 ng/ml, 4 hours): able to reduce | TNFα release in response to TLR3 agonist Poly I:C ([3]; 4-6 hours, ELISA): reduced | TNFα release in response to TLR4 agonist LPS ([3]; LPS, 4-6 hours, ELISA): reduced; also recorded: significantly less | TNFα release in the absence of LPS stimulation ([3]; unstimulated): did not increase; also recorded: does not increase | TNFα release in response to other TLR agonists ([3]; TLR1/2, TLR5, TLR6/2, TLR7, TLR9 agonists): did not significantly reduce
